Assay results taken from the supplement of paper PMC10307832.

Experiments:
Experiment in all cases: relative viability (nuclei count vs DMSO), 5 days (fraction); higher = more cells survive
SW 1573 = test system: SW 1573
In short: (§1)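 Five library-drug doses in √10 steps were combined with a fixed anchor-drug dose, or a single drug was given alone, by pin tool to lung cancer cell lines in 1536-well plates the day after seeding. Nuclei were stained and counted after 5 days. Relative viability is the nuclei count in treated wells over that in vehicle wells, taken as the median of duplicate plates.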

RERF-LC-KJ = test system: RERF-LC-KJ
In short: as §1

NCI-H2347 = test system: NCI-H2347
In short: as §1

EMC-BAC-2 = test system: EMC-BAC-2
In short: as §1

NCI-H838 = test system: NCI-H838
In short: as §1

NCI-H596 = test system: NCI-H596
In short: as §1

HCC-366 = test system: HCC-366
In short: as §1

NCI-H3122 = test system: NCI-H3122
In short: as §1

NCI-H2228 = test system: NCI-H2228
In short: as §1

PC-14 = test system: PC-14
In short: as §1

NCI-H2405 = test system: NCI-H2405
In short: as §1

HCC-78 = test system: HCC-78
In short: as §1

CAL-12T = test system: CAL-12T
In short: as §1

NCI-H2009 = test system: NCI-H2009
In short: as §1

NCI-H1993 = test system: NCI-H1993
In short: as §1

LC-2-ad = test system: LC-2-ad
In short: as §1

ChaGo-K-1 = test system: ChaGo-K-1
In short: as §1

NCI-H2085 = test system: NCI-H2085
In short: as §1

HOP-62 = test system: HOP-62
In short: as §1

NCI-H1355 = test system: NCI-H1355
In short: as §1

NCI-H1734 = test system: NCI-H1734
In short: as §1

For `O=C(O)CCCCC(CCSCc1ccccc1)SCc1ccccc1` (centres undefined) [CPI-613] + CC(C)C[C@H](NC(=O)[C@H](Cc1ccccc1)NC(=O)c1cnccn1)B(O)O [Bortezomib] (partner 0.002 µM), the relative viability (SW 1573; first compound 5 µM) was 0.951, the relative viability (SW 1573; first compound 15.81 µM) was 0.985 and the relative viability (SW 1573; first compound 50 µM) was 0.979. It also gave a relative viability (SW 1573; first compound 158.11 µM) of 0.884, a relative viability (SW 1573; first compound 500 µM) of 0.802 and a relative viability (RERF-LC-KJ; first compound 5 µM) of 1.1. For the same molecule, the relative viability (RERF-LC-KJ; first compound 15.81 µM) was 1.13, the relative viability (RERF-LC-KJ; first compound 50 µM) was 1.08 and the relative viability (RERF-LC-KJ; first compound 158.11 µM) was 1.07. It also gave a relative viability (RERF-LC-KJ; first compound 500 µM) of 0.958, a relative viability (NCI-H2347; first compound 5 µM) of 0.606 and a relative viability (NCI-H2347; first compound 15.81 µM) of 0.833. It also gave a relative viability (NCI-H2347; first compound 50 µM) of 1.2, a relative viability (NCI-H2347; first compound 500 µM) of 1 and a relative viability (EMC-BAC-2; first compound 5 µM) of 1.06. The relative viability (EMC-BAC-2; first compound 15.81 µM) was 0.993, the relative viability (EMC-BAC-2; first compound 50 µM) was 1.07 and the relative viability (EMC-BAC-2; first compound 158.11 µM) was 0.936. The relative viability (EMC-BAC-2; first compound 500 µM) was 0.4, the relative viability (NCI-H838; first compound 5 µM) was 0.867 and the relative viability (NCI-H838; first compound 15.81 µM) was 0.702. It also gave a relative viability (NCI-H838; first compound 50 µM) of 1.02, a relative viability (NCI-H838; first compound 158.11 µM) of 0.425 and a relative viability (NCI-H838; first compound 500 µM) of 0.0658. The relative viability (NCI-H596; first compound 5 µM) was 0.972, the relative viability (NCI-H596; first compound 15.81 µM) was 0.934 and the relative viability (NCI-H596; first compound 50 µM) was 1. For the same molecule, the relative viability (NCI-H596; first compound 158.11 µM) was 0.779, the relative viability (NCI-H596; first compound 500 µM) was 0.208 and the relative viability (HCC-366; first compound 5 µM) was 1.01. It also gave a relative viability (HCC-366; first compound 15.81 µM) of 0.957, a relative viability (HCC-366; first compound 50 µM) of 1.06 and a relative viability (HCC-366; first compound 158.11 µM) of 0.391. The relative viability (HCC-366; first compound 500 µM) was 0.0068, the relative viability (NCI-H3122; first compound 5 µM) was 0.973 and the relative viability (NCI-H3122; first compound 15.81 µM) was 1.04. It also gave a relative viability (NCI-H3122; first compound 50 µM) of 1.01, a relative viability (NCI-H3122; first compound 158.11 µM) of 0.939 and a relative viability (NCI-H3122; first compound 500 µM) of 0.281. For the same molecule, the relative viability (NCI-H2228; first compound 5 µM) was 0.918, the relative viability (NCI-H2228; first compound 15.81 µM) was 1.04 and the relative viability (NCI-H2228; first compound 50 µM) was 1.07. For the same molecule, the relative viability (NCI-H2228; first compound 158.11 µM) was 0.217, the relative viability (NCI-H2228; first compound 500 µM) was 0.0287 and the relative viability (PC-14; first compound 5 µM) was 0.989. The relative viability (PC-14; first compound 15.81 µM) was 0.855, the relative viability (PC-14; first compound 50 µM) was 0.839 and the relative viability (PC-14; first compound 158.11 µM) was 0.893. It also gave a relative viability (PC-14; first compound 500 µM) of 0.339, a relative viability (NCI-H2405; first compound 5 µM) of 0.986 and a relative viability (NCI-H2405; first compound 15.81 µM) of 0.961. The relative viability (NCI-H2405; first compound 50 µM) was 0.891, the relative viability (NCI-H2405; first compound 158.11 µM) was 0.913 and the relative viability (NCI-H2405; first compound 500 µM) was 0.852. For the same molecule, the relative viability (HCC-78; first compound 5 µM) was 0.5, the relative viability (HCC-78; first compound 15.81 µM) was 0.397 and the relative viability (HCC-78; first compound 50 µM) was 0.553. For the same molecule, the relative viability (HCC-78; first compound 158.11 µM) was 0.445, the relative viability (HCC-78; first compound 500 µM) was 0.602 and the relative viability (CAL-12T; first compound 5 µM) was 0.866. It also gave a relative viability (CAL-12T; first compound 15.81 µM) of 0.774, a relative viability (CAL-12T; first compound 50 µM) of 0.758 and a relative viability (CAL-12T; first compound 158.11 µM) of 0.498. It also gave a relative viability (CAL-12T; first compound 500 µM) of 0.277, a relative viability (NCI-H2009; first compound 5 µM) of 1.07 and a relative viability (NCI-H2009; first compound 15.81 µM) of 0.942. The relative viability (NCI-H2009; first compound 50 µM) was 0.884, the relative viability (NCI-H2009; first compound 158.11 µM) was 0.0722 and the relative viability (NCI-H2009; first compound 500 µM) was 0.0082. The relative viability (NCI-H1993; first compound 5 µM) was 0.953, the relative viability (NCI-H1993; first compound 15.81 µM) was 0.918 and the relative viability (NCI-H1993; first compound 50 µM) was 0.943. For the same molecule, the relative viability (NCI-H1993; first compound 158.11 µM) was 0.717, the relative viability (NCI-H1993; first compound 500 µM) was 0.363 and the relative viability (LC-2-ad; first compound 5 µM) was 0.621. The relative viability (LC-2-ad; first compound 15.81 µM) was 0.932, the relative viability (LC-2-ad; first compound 50 µM) was 0.979 and the relative viability (LC-2-ad; first compound 158.11 µM) was 0.259. For the same molecule, the relative viability (LC-2-ad; first compound 500 µM) was 0.0023, the relative viability (ChaGo-K-1; first compound 5 µM) was 0.836 and the relative viability (ChaGo-K-1; first compound 15.81 µM) was 0.855. It also gave a relative viability (ChaGo-K-1; first compound 50 µM) of 0.804, a relative viability (ChaGo-K-1; first compound 158.11 µM) of 0.671 and a relative viability (ChaGo-K-1; first compound 500 µM) of 0.554. For the same molecule, the relative viability (NCI-H2085; first compound 5 µM) was 0.984, the relative viability (NCI-H2085; first compound 15.81 µM) was 0.847 and the relative viability (NCI-H2085; first compound 50 µM) was 0.995. For the same molecule, the relative viability (NCI-H2085; first compound 158.11 µM) was 0.873, the relative viability (NCI-H2085; first compound 500 µM) was 0.194 and the relative viability (HOP-62; first compound 5 µM) was 0.511. The relative viability (HOP-62; first compound 15.81 µM) was 0.545, the relative viability (HOP-62; first compound 50 µM) was 1.26 and the relative viability (HOP-62; first compound 158.11 µM) was 0.464. The relative viability (HOP-62; first compound 500 µM) was 0.0422, the relative viability (NCI-H1355; first compound 5 µM) was 1.2 and the relative viability (NCI-H1355; first compound 15.81 µM) was 1.22. The relative viability (NCI-H1355; first compound 50 µM) was 1.23, the relative viability (NCI-H1355; first compound 158.11 µM) was 0.646 and the relative viability (NCI-H1355; first compound 500 µM) was 0.611. It also gave a relative viability (NCI-H1734; first compound 5 µM) of 0.858, a relative viability (NCI-H1734; first compound 15.81 µM) of 0.846 and a relative viability (NCI-H1734; first compound 50 µM) of 0.877. The relative viability (NCI-H1734; first compound 158.11 µM) was 0.278 and the relative viability (NCI-H1734; first compound 500 µM) was 0.101.
